Test results from ChEMBL document CHEMBL5233242, “Dihydrofolate reductase inhibitors for use as antimicrobial agents” (Eur J Med Chem, 2020).
In brackets after ≈: the same amount, converted by molar mass.

Key:
[1] = tested on: Mycobacterium tuberculosis; experiment: Antibacterial activity against extensively drug-resistant Mycobacterium tuberculosis 5; assay type: functional
[2] = tested on: Mycobacterium tuberculosis; experiment: Antibacterial activity against multi drug-resistant Mycobacterium tuberculosis 365; assay type: functional

Row | Compound | MIC [1] [µM] | MIC [2] [µM]
1 | CCc1nc(N)nc(N)c1C#C[C@H](C)c1cc(OC)cc(-c2ccc(C(=O)O)cc2)c1 | 0.6 (≈ 0.25 µg/mL) | < 0.072
2 | CCc1nc(N)nc(N)c1C#CCc1cc(OC)cc(-c2ccc(C(=O)O)cc2)c1 | 4.97 (≈ 2 µg/mL) | 0.311 (≈ 0.125 µg/mL)
